What all share (test): antagonist selectivity across CCR6, CXCR5 and CXCR6 – cell-based, CHO-K1 PathHunter beta-arrestin, luminescence, selectivity assay for CXCR6 antagonist project, profiling panel (AID 651601)
Common to all, as to details: antagonist mode

In experiment [1] the target is C-X-C chemokine receptor type 5 (Homo sapiens) (UniProt P32302).
Experiment [2] addresses C-C chemokine receptor type 6 (Homo sapiens) (UniProt P51684).
For experiment [3], the target named is C-X-C chemokine receptor type 6 (Homo sapiens) (UniProt O00574).
Sequence of C-X-C chemokine receptor type 6 (Homo sapiens) (O00574 whole entry, looked up): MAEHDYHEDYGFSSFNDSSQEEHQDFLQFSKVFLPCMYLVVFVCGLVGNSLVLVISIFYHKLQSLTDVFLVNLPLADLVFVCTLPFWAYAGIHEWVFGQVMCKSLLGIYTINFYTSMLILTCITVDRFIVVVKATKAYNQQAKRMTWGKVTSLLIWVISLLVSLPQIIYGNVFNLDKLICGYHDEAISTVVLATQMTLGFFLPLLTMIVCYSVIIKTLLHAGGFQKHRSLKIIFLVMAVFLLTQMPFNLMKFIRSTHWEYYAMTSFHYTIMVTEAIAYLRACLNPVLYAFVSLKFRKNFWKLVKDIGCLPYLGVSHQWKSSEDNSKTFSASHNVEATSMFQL
[4] abbreviates: CXCR5, mean of runs, mean IC50 across replicates.
Where [5] appears, read: CCR6, mean of runs, mean IC50 across replicates.
Setting [6] is: CXCR6, mean of runs, mean IC50 across replicates.

The structures appear in SMILES notation. pIC50: −log10 of the molar value.

Usually pIC50 stands for −log10 of the IC50, conventionally taken in molar units. A lower pIC50 goes with a large IC50.

Sequence of C-C chemokine receptor type 6 (Homo sapiens) (P51684 whole entry, looked up): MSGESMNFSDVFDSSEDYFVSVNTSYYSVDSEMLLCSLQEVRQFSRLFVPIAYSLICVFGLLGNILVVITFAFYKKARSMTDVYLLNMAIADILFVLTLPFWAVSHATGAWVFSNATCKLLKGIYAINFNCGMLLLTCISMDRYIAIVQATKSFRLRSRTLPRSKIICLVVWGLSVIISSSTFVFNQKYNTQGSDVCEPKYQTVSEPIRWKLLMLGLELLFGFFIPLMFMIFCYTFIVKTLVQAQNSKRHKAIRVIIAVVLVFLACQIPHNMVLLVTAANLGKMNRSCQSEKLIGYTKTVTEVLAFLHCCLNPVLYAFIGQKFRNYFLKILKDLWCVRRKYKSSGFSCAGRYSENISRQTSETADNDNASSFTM
Sequence of C-X-C chemokine receptor type 5 (Homo sapiens) (P32302 whole entry, looked up): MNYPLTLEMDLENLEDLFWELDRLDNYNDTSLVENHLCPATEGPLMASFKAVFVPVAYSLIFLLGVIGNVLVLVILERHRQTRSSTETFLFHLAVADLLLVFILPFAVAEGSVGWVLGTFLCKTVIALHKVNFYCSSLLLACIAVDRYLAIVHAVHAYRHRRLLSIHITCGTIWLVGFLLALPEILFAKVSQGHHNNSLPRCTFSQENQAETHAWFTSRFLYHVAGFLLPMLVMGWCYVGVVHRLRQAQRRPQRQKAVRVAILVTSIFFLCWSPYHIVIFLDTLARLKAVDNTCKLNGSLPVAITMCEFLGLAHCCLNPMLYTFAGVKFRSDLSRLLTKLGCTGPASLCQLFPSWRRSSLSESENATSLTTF

In the case of `COc1cc(C(=O)NC2CC3CCCC(C2)N3CC(=O)Nc2ccccc2)cc(OC)c1OC` (stereo not drawn), the negative-log IC50 (pIC50) is less than 4.18 in experiment [1] (setting [4]); less than 4.18 in experiment [1] (CXCR5, run 1); less than 4.18 in experiment [1] (CXCR5, run 2); less than 4.10 in experiment [2] (setting [5]); less than 4.10 in experiment [2] (CCR6, run 1); less than 4.10 in experiment [2] (CCR6, run 2). Besides, the pIC50 is less than 4.10 in experiment [2] (CCR6, run 3); less than 4.10 in experiment [2] (CCR6, run 4); 4.84 in experiment [3] (setting [6]); 5.32 in experiment [3] (CXCR6, run 1); 5.22 in experiment [3] (CXCR6, run 2); 5.23 in experiment [3] (CXCR6, run 3). For the same molecule, in experiment [3] (CXCR6, run 4), the negative logarithm of the IC50 (pIC50) was 4.39.
For the molecule `O=C(CN1C2CCCC1CC(NC(=O)c1ccccc1)C2)Nc1ccccc1` (stereo not drawn), the pIC50 in experiment [1] (setting [4]) is less than 4.18; in experiment [1] (CXCR5, run 1), less than 4.18; in experiment [1] (CXCR5, run 2) it was less than 4.18; in experiment [2] (setting [5]), less than 4.10; in experiment [2] (CCR6, run 1) it was less than 4.10; in experiment [2] (CCR6, run 2) it was less than 4.10. Besides, the pIC50 in experiment [2] (CCR6, run 3) was less than 4.10; in experiment [2] (CCR6, run 4), less than 4.10; in experiment [3] (setting [6]) it was less than 4.10; in experiment [3] (CXCR6, run 1), less than 4.10; in experiment [3] (CXCR6, run 2), less than 4.10; in experiment [3] (CXCR6, run 3), less than 4.10. The molecule further had a negative-log IC50 (pIC50) in experiment [3] (CXCR6, run 4) of less than 4.10.
For `COc1cccc(C(=O)NC2CC3CCCC(C2)N3CC(=O)Nc2ccc(N(C)C)cc2)c1` (stereo not drawn), the pIC50 in experiment [1] (setting [4]) is less than 4.18; in experiment [1] (CXCR5, run 1), less than 4.18; in experiment [1] (CXCR5, run 2) it was less than 4.18; in experiment [2] (setting [5]), less than 4.10; in experiment [2] (CCR6, run 1) it was less than 4.10; in experiment [2] (CCR6, run 2) it was less than 4.10. The pIC50 in experiment [2] (CCR6, run 3) is less than 4.10; in experiment [2] (CCR6, run 4), less than 4.10; in experiment [3] (setting [6]), less than 4.10; in experiment [3] (CXCR6, run 1), less than 4.10; in experiment [3] (CXCR6, run 2), less than 4.10; in experiment [3] (CXCR6, run 3), less than 4.10. Also, in experiment [3] (CXCR6, run 4), the negative logarithm of the IC50 (pIC50) was less than 4.10.
`O=C(CN1C2CCCC1CC(NC(=O)c1ccccc1)C2)Nc1ccccc1C(F)(F)F` (stereo not drawn): the pIC50 in experiment [1] (setting [4]) was less than 4.18; in experiment [1] (CXCR5, run 1), less than 4.18; in experiment [1] (CXCR5, run 2) it was less than 4.18; in experiment [2] (setting [5]), less than 4.10; in experiment [2] (CCR6, run 1), less than 4.10; in experiment [2] (CCR6, run 2), less than 4.10. The pIC50 in experiment [2] (CCR6, run 3) is less than 4.10; in experiment [2] (CCR6, run 4), less than 4.10; in experiment [3] (setting [6]) it was less than 4.10; in experiment [3] (CXCR6, run 1) it was less than 4.10; in experiment [3] (CXCR6, run 2), less than 4.10; in experiment [3] (CXCR6, run 3) it was less than 4.10. The molecule further showed a pIC50 in experiment [3] (CXCR6, run 4) of less than 4.10.
Consider `CN(C)c1ccc(NC(=O)CN2C3CCCC2CC(NC(=O)c2ccccc2)C3)cc1` (stereo not drawn), for which the pIC50 in experiment [1] (setting [4]) was less than 4.18; in experiment [1] (CXCR5, run 1), less than 4.18; in experiment [1] (CXCR5, run 2) it was less than 4.18; in experiment [2] (setting [5]) it was less than 4.10; in experiment [2] (CCR6, run 1), less than 4.10; in experiment [2] (CCR6, run 2) it was less than 4.10. Also, the pIC50 was less than 4.10 in experiment [2] (CCR6, run 3); less than 4.10 in experiment [2] (CCR6, run 4); less than 4.10 in experiment [3] (setting [6]); less than 4.10 in experiment [3] (CXCR6, run 1); less than 4.10 in experiment [3] (CXCR6, run 2); less than 4.10 in experiment [3] (CXCR6, run 3). This molecule had a pIC50 in experiment [3] (CXCR6, run 4) of less than 4.10.
As for `COc1cccc(C(=O)NC2CC3CCCC(C2)N3CC(=O)Nc2ccccc2C(F)(F)F)c1` (stereo not drawn), the pIC50 is less than 4.18 in experiment [1] (setting [4]); less than 4.18 in experiment [1] (CXCR5, run 1); less than 4.18 in experiment [1] (CXCR5, run 2); less than 4.10 in experiment [2] (setting [5]); less than 4.10 in experiment [2] (CCR6, run 1); less than 4.10 in experiment [2] (CCR6, run 2). The pIC50 was less than 4.10 in experiment [2] (CCR6, run 3); less than 4.10 in experiment [2] (CCR6, run 4); less than 4.10 in experiment [3] (setting [6]); less than 4.10 in experiment [3] (CXCR6, run 1); less than 4.10 in experiment [3] (CXCR6, run 2); less than 4.10 in experiment [3] (CXCR6, run 3). Besides, the pIC50 in experiment [3] (CXCR6, run 4) was less than 4.10.

Source of the values: PubChem BioAssay AID651601 (Sanford-Burnham Center for Chemical Genomics, 2012).
